Experimental data as given in ChEMBL document CHEMBL1146443, “New indole derivatives with free radical scavenging activity from Agrocybe cylindracea” (J Nat Prod, 1997).
Values after ≈ are worked out from the molar mass of the structure shown. Active and inactive are the calls of the source. No cut-off for these calls is given here.

How the values were obtained:
Liver microsomes [1] = assay: Inhibition of lipid peroxidation in rat liver microsome; format: functional
Liver microsomes [2] = assay: Inhibition of lipid peroxidation in rat liver microsome at 50 ug/mL; format: functional

NC(=O)Cc1c[nH]c2cc(O)ccc12
IC50 (Liver microsomes [1]): 3.9 µg/mL (≈ 20.5 µM)

O=C(O)Cc1c[nH]c2ccccc12
Activity (Liver microsomes [2]): inactive

O=Cc1c[nH]c2cc(O)ccc12
IC50 (Liver microsomes [1]): 4.1 µg/mL (≈ 25.4 µM)
